Data from patent publication US20080199441A1, “Use of ex-vivo cultured hematopoietic cells for treatment of peripheral vascular diseases” (priority 2006, published 2008).

How the values were obtained:
[1] = tested on: cord-blood-derived, bone marrow-derived, and peripheral blood derived hematopoietic cells; details: grown without a feeder layer; cited from earlier work
[2] = tested on: hematopoietic stem/progenitor cells (CD34+ or CD133+); test: Ex vivo expansion of hematopoietic cells; assay type: cell-based, human; details: cultured with cytokines plus inhibitor, compared to cells cultured with cytokines alone
Procedure: Cell cultures of human hematopoietic cells: Human umbilical cord blood cells were obtained from umbilical cord blood after normal full-term delivery (informed consent was given). MPB, or BM were obtained from donations (informed consent was given). Samples were either used fresh or collected and frozen according to well known cord blood cryopreservation protocol (Rubinstein et al. 1995) within 24 hours postpartum for UCB or according to common practice regarding MPB and BM. Prior to cryopreservation, blood was sedimented for 30 minutes on […] Starch (hydroxyethyl starch) to remove most RBC. Prior to their use, the cells were thawed in Dextran buffer (Sigma, St. Louis, Mo., USA) containing 2.5% human serum albumin (HSA)(Bayer Corp. Elkhart, Ind., USA) and processed as described herein below. Following thawing, where indicated, the leukocyte-rich fraction was harvested and layered on Ficoll-Hypaque gradient (1.077 g/mL; Sigma Inc, St Louis Mo., USA), and centrifuged at 400×g for 30 minutes. The mononuclear cell fraction in the interface layer was then collected, washed three times, and re-suspended in phosphate-buffered saline (PBS) (Biological Industries, Bet HaEmek, Israel) containing 0.5% human serum albumin (HSA) (Bayer Corp. Elkhart, Ind., USA). […] The purity of the CD133^+ populations thus obtained was 80-95%, as evaluated by flow cytometry. […]

Row | SMILES | fraction of CD34+ cells and long-term clonability [1] | enrichment of stem/early progenitor cell subsets (CD34+CD38− and CD34+Lin−) in cultured population [2]
1 | NCCNCCNCCNCCN [TEPA, tetraethylpentamine] | greatly enhanced the fraction of CD34^+ cell and their long-term clonability | –
2 | NC(=O)c1cccnc1 [nicotinamide] | – | enriched with subsets of stem/early progenitor cells
